Measured values reported in article PMC10634346 (Cancer Research Communications, 2023).
Where two headings read alike, the source gives them in different places.

Legend:
[1] = tested on: MYC mRNA in SU-DHL-10 cells; assay: In vitro washout, MYC mRNA qPCR, SU-DHL-10; format: cell-based, human; conditions: 4 h treatment then washout, for 16 to 48 hours after treatment
Procedure: (§1) Evaluation of the pharmacodynamic extent and duration of CDK9 inhibition were performed in vitro using the human DLBCL cell lines SU-DHL-4 and SU-DHL-10, harboring MYC amplification and MYC overexpression with P57T mutation, respectively. Cells were seeded 18 hours prior to treatment for 4 hours with one of three CDK9 inhibitors, enitociclib (0.25 and1 µmol/L), atuveciclib (1 µmol/L) or KB-0742 (1 µmol/L), cells were washed, and incubation continued until 48 hours posttreatment. Samples were collected before treatment (−4), immediately after treatment (0), and at 1, 2, 4, 8, 12, 16, 24, and 48 hours after washout for RNA sequencing (RNA-seq), qPCR, and Western blotting analyses. Total RNA was extracted from blood of patients and cell lines using RNeasy Plus Mini Kit (QIAGEN, #74136) and cDNA prepared with the Maxima First Strand cDNA Synthesis Kit for RT-PCR (Thermo Fisher Scientific, K1642) according to manufacturer's instructions. The integrity of purified total RNA was evaluated using an Agilent 2100 Bioanalyzer system and RNA 6000 Nano Kit (Agilent, #5067-1511). Differential gene expression analysis was performed (Fios Genomics) from RNA-seq data (Discovery Life Sciences). MYC and MCL1 mRNA levels were measured by qPCR in vitro and in vivo, using a Taqman qPCR system (Thermo Fisher Scientific), TaqMan Fast Universal PCR Master Mix (2X) no AmpErase (#4352042) and TaqMan probes for MYC (Hs00153408_m1) and MCL1 (Hs03043899_m1). RNA-seq data were analyzed using DESeq2 ([35]).

[2] = tested on: MCL1 mRNA in SU-DHL-10 cells; assay: In vitro washout, MCL1 mRNA qPCR, SU-DHL-10; format: cell-based, human; conditions: 4 h treatment then washout, for 16 to 48 hours after treatment
Procedure: as §1

[3] = tested on: MYC and MCL1 mRNA in SU-DHL-4 cells; assay: In vitro washout, MYC and MCL1 mRNA qPCR, SU-DHL-4; format: cell-based, human; conditions: 1 µmol/L, 4 h treatment then washout
Procedure: as §1, with “Differential gene expression analysis was performed (Fios Genomics) from RNA-seq data (Discovery Life Sciences).” left out

SU-DHL-10 xenografts = assay: SU-DHL-10 xenograft antitumor efficacy; format: in vivo, C.B-17 SCID mice
Procedure: A total of 10 × 10^6 SU-DHL-10 cells were inoculated subcutaneously into 6–8 weeks old female C.B-17 SCID mice (Iffa Credo, Brussels). The mice were randomized to treatment groups at a tumor volume of 63–104 mm^3 and treated (intravenously, once weekly) with 10 mg/kg enitociclib (60% PEG400, 10% ethanol, water), 15 mg/kg enitociclib (30% PEG400, 10% ethanol, water), or corresponding vehicle treatments. Mice were around 10–12 weeks of age at the start of study. All animal experiments were performed under the national animal welfare laws of Germany and approved by the local authorities.
Statistical analyses were performed using GraphPad Prism v9 (GraphPad Software). For tumor volumes in SU-DHL-10 xenograft model, statistics were performed using unpaired t test in comparison with the corresponding vehicle treatment. The obtained P values were adjusted for all analyses. Results were considered statistically significant when P < 0.05.

[4] = tested on: Myc protein in SU-DHL-10 tumors; assay: Pharmacodynamics in SU-DHL-10 xenograft tumors, Myc protein; format: in vivo, C.B-17 SCID mice; conditions: single dose; within 4 to 8 hours postdose
Procedure: (§2) The levels of p-Ser2, p-Ser5 and total RNA polymerase II, Myc, Mcl-1, cleaved PARP (cPARP), and cleaved Caspase 3 were assessed by Western blotting and quantified near-infrared detection and background corrected quantification of fluorescence intensity on an Odyssey Imaging System with IRDye secondary antibodies (LI-COR Biosciences). For quantification, the protein levels were normalized to GAPDH or HSP90, expressed as a ratio to DMSO or vehicle control at matched timepoints. The normalized relative protein levels of p-Ser2 were used for a treatment effect comparison by performing an ANOVA using PROC MIXED in SAS. The ANOVA model included treatment, timepoints and their interactions as fixed effects. The least square means (LSM), differences between the LSMs and associated P values were generated. The following primary antibodies were used: Rpb1 NTD (D8L4Y) rabbit antibody [Cell Signaling Technology (CST), #14958], anti-RNA polymerase II subunit B1 (phospho CTD Ser-2, clone 3E10) rat antibody (Merck, 04-1571-I), recombinant anti-c-MYC rabbit antibody (Y69; Abcam, #ab32072), MCL1 (D5V5L) rabbit antibody (CST, #39224), cleaved-PARP (Asp214) (E2T4K) mouse antibody (CST, #32563), HSP90 (C45G5) rabbit antibody (CST, #4877), and GAPDH mouse antibody (Zytomed Systems, #ZYT-RGM2-6C5). […]

[5] = tested on: cleaved PARP in SU-DHL-10 tumors; assay: Pharmacodynamics in SU-DHL-10 xenograft tumors, cleaved PARP; format: in vivo, C.B-17 SCID mice; conditions: single dose
Procedure: as §2

[6] = Clinical pharmacokinetics, plasma LC/MS-MS (NCT02635672); format: in vivo, human; conditions: for Cmax / half-life: human, plasma
Procedure: Fifteen patients with refractory or relapsed DH-DLBCL or other MYC+ NHL were treated with enitociclib (30 mg, 21-day cycle, once weekly x3) as a 30-minute intravenous infusion on study days 1, 8, and 15 (NCT02635672). Longitudinal gene expression levels were analyzed by RNA-seq, and enitociclib plasma concentrations were measured using LC/MS-MS. The clinical study protocol was approved by the Institutional Review Board of participating institutions and complied with the Declaration of Helsinki, current Good Clinical Practice guidelines, and local laws and regulations. Written informed consent was provided by all participants prior to the initiation of any study-specific procedure.
All pharmacokinetic parameters were calculated by noncompartmental methods as described previously ([36]) using WinNonlin v5.3 (Certara LP). Pharmacokinetic/pharmacodynamic modeling was performed using SAAM II v2.3.2 (The Epsilon Group). Pooled pharmacokinetic data from all patients [n = 15 for single dose, cycle 1 day 1 (C1D1) and n = 11 for multiple doses, cycle 1 day 15 (C1D15)] were characterized using a one-compartment model with intravenous dosing. Subsequently, the pharmacokinetic/pharmacodynamic relationship of enitociclib plasma concentrations to MCL1 and MYC mRNA change was characterized using an indirect response model ([37]) on pooled biomarker data where enitociclib concentrations inhibit the formation of MCL1 or MYC mRNA as described by the following equation: […]

[7] = Fraction unbound (fu) used for patient unbound Cmax; format: in vitro ADME; conditions: human, plasma; patients
[8] = tested on: DH-DLBCL and other MYC+ NHL; conditions: 30 mg i.v. once weekly, phase I; cited from earlier work

COc1cc(F)ccc1-c1cc(Nc2cc(CS(C)(=N)=O)ccn2)ncc1F (centres unmarked) [enitociclib]
inhibition of MYC mRNA levels [1]: approximately 75% | inhibition of MCL1 mRNA levels [2]: approximately 75% | MYC and MCL1 mRNA levels over the 48-hour time course (in words) [3]: durable depletion | antitumor efficacy (in words) (SU-DHL-10 xenografts; 10 mg/kg i.v. once weekly): tumor growth control | treatment/control (T/C) value (SU-DHL-10 xenografts; 10 mg/kg i.v. once weekly, day 16 after treatment start, P = 0.011): 0.19 | antitumor efficacy (in words) (SU-DHL-10 xenografts; 15 mg/kg i.v. once weekly, 3-week treatment period): complete regression | treatment/control (T/C) value (SU-DHL-10 xenografts; 15 mg/kg i.v. once weekly, day 20 after treatment start, P < 0.001): 0.005 | tumor growth inhibition reaching, of control (SU-DHL-10 xenografts; SU-DHL-10 xenografts): 0.5 % of control | reduction of Myc protein levels in tumors [4]: 50% | cleaved PARP in tumors (in words) [5]: increase in cleaved PARP | Cmax ([6]; intravenous, 22.5 mg, subject 3, dose lowered from 30 to 22.5 mg, not included in average, read-out: Multiple dose C max): 592 ng/mL | half-life ([6]; intravenous, 22.5 mg, subject 3, dose lowered from 30 to 22.5 mg, not included in average, read-out: Multiple dose t1/2 (converted)): 152 min | half-life ([6]; intravenous, 30 mg, patients treated with multiple doses, read-out: mean t1/2 (converted)): 334 min | Cmax ([6]; iv, 30 mg, patients, 30 mg i.v. once weekly, read-out: Cmax): 1750 nM | unbound Cmax ([6]; patients, 30 mg i.v. once weekly, Cmax x fu): 117 nmol/L | fraction unbound [7]: 0.0665 | complete metabolic remission (CR), patients with DH-DLBCL [8]: 2 of 7
